Assays:
ClMlp2 [1] = test system: T1, ClMlp2; test: UV-visible spectroscopy, loss of methylcob(III)alamin absorbance at […] nm, steady-state kinetics; assay type: biochemical, Clostridium ljungdahlii; details: co-substrate methylcob(III)alamin (non-physiological methyl donor); strictly anoxic nitrogen atmosphere; reverse of the hypothesized physiological reaction; fit with substrate inhibition; read-out: apparent KM
T1 construct: gene mlp2; recombinant ClMlp2

ClMlp2 [2] = target: T1, ClMlp2; test: as above; assay type: biochemical, Clostridium ljungdahlii; details: co-substrate methylcob(III)alamin (non-physiological methyl donor); strictly anoxic nitrogen atmosphere; reverse of the hypothesized physiological reaction; fit with substrate inhibition; substrate in

## [SeH2] [selenide]
ClMlp2 [1]
  Km: 79.8 µM
ClMlp2 [2]
  KI (selenide substrate inhibition constant): 3.83 mM
